Data as given in US9968620B2, “Methods of treating lymphoma using thienotriazolodiazepine compounds” (ONCOETHIX GmbH, priority 2014, dated 2018).
Counter-ions that a name gives are not always drawn.

Columns and labels:
Hck = Hck (Homo sapiens, UniProt P08631); details: cited from earlier work
JAK-1 = JAK-1 (Homo sapiens, UniProt P23458); details: cited from earlier work
SYK = SYK (Homo sapiens, UniProt P43405); details: cited from earlier work
JAK-3 = JAK-3 (Homo sapiens, UniProt P52333); details: cited from earlier work
EGFR kinase = EGFR kinase (Homo sapiens, UniProt P00533); details: cited from earlier work
IR kinase = IR kinase (Homo sapiens, UniProt P06213); details: cited from earlier work
JAK-2 = JAK-2 (Homo sapiens, UniProt O60674); details: cited from earlier work
HDAC = details: cited from earlier work
FKBP12 = FKBP12 (Homo sapiens, UniProt P62942); details: cited from earlier work
[1] = system: lymphoma cell lines (2-5 cell lines); assay: Synergy of compound (1-1) with other agents, MTT, Chou-Talalay combination index; format: cell-based; details: 72 h; for combination effect with compound (1-1): Chou-Talalay; for Chou-Talalay combination index (CI), median / Chou-Talalay combination index (CI), range: in combination with compound (1-1)
PI3K/mTOR = details: cited from earlier work
[2] = system: Akt phosphorylation on S473; details: cited from earlier work
[3] = system: Akt phosphorylation on T308; details: cited from earlier work
PDGFR = details: cited from earlier work
[4] = system: pAktS473, pGSK3βS9, pS6, pMAPK, pAktT308; details: cited from earlier work
PI3Kγ (p110γ) = PI3Kγ (p110γ) (Homo sapiens, UniProt P48736); details: cited from earlier work
PI3Kβ (p110β) = PI3Kβ (p110β) (Homo sapiens, UniProt P42338); details: cited from earlier work
Chain of PI3Kβ (p110β) (P42338 whole entry, species assumed): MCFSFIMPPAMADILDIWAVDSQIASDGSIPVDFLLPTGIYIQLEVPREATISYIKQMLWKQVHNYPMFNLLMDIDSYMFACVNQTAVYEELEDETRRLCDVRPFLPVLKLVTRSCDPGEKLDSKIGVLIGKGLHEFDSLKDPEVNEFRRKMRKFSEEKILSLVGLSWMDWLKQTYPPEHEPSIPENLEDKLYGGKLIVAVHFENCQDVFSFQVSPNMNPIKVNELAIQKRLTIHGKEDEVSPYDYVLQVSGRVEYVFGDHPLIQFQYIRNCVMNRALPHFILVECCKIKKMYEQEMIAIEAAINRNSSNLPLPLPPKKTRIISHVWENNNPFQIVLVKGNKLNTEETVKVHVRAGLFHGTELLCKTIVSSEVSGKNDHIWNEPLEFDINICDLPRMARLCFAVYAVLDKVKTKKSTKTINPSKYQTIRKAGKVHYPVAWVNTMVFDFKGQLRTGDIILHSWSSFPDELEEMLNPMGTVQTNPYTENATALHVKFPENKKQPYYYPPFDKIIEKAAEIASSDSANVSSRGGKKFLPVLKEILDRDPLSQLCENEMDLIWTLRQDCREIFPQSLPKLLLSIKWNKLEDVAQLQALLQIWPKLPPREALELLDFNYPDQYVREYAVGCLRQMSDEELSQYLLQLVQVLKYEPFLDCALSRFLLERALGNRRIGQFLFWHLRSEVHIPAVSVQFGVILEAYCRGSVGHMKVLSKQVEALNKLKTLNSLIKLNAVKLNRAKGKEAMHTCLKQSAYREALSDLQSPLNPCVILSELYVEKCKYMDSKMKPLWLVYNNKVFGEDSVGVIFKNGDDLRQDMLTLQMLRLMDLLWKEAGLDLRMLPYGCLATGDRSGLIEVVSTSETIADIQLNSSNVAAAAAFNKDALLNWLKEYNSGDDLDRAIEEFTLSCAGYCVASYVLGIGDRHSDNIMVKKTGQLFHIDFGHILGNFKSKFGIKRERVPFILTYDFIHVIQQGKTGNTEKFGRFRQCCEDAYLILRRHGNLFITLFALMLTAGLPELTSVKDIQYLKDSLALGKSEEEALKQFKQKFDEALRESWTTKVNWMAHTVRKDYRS
Chain of PI3Kβ (p110β) (P27986 whole entry partner, species assumed): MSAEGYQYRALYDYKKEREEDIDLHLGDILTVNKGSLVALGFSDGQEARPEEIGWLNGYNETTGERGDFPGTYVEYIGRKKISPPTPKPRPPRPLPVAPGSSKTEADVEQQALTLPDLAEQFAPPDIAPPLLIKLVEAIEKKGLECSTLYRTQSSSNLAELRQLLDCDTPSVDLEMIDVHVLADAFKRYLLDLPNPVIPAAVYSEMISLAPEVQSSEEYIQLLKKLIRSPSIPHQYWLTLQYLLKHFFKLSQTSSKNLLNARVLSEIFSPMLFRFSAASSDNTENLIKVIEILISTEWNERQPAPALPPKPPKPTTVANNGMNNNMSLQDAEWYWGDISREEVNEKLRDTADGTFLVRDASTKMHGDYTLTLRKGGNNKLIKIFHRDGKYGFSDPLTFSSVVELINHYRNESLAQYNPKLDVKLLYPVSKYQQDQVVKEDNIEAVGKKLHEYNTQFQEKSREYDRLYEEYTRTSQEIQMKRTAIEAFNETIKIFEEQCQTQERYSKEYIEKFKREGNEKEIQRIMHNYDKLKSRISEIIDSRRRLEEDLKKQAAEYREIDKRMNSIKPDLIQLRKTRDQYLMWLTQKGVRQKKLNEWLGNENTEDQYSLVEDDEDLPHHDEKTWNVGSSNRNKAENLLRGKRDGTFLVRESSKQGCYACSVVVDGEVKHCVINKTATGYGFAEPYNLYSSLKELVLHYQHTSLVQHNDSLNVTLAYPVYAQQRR

Chain of JAK-2 (O60674 whole entry, species assumed): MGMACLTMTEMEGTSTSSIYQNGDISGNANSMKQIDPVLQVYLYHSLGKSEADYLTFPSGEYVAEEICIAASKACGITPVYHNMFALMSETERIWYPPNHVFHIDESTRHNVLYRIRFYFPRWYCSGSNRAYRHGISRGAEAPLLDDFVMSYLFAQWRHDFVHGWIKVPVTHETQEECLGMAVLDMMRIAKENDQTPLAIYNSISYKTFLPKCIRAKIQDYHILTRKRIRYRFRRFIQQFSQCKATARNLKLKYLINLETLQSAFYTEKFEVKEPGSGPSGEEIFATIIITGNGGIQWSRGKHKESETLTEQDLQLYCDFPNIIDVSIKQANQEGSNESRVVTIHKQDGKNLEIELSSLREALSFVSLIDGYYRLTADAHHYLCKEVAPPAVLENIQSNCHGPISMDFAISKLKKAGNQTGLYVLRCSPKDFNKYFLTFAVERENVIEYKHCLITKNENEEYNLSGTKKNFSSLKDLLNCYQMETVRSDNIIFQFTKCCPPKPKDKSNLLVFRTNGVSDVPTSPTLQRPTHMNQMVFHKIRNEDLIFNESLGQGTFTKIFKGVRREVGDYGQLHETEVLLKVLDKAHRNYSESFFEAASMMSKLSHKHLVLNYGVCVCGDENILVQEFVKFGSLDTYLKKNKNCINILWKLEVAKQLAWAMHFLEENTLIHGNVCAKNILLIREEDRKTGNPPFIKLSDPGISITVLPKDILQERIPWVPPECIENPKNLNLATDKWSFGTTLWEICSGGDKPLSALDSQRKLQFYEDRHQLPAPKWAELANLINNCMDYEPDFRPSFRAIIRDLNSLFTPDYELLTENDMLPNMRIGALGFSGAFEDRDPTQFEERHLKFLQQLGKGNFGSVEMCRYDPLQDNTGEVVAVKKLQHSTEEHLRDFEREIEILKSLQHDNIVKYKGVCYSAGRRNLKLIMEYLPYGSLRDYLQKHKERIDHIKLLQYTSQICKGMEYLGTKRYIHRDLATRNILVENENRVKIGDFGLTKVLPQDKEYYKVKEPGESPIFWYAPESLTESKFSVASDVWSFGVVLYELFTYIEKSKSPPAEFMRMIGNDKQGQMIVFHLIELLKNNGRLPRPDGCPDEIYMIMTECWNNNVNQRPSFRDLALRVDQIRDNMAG
Chain of JAK-3 (P52333 whole entry, species assumed): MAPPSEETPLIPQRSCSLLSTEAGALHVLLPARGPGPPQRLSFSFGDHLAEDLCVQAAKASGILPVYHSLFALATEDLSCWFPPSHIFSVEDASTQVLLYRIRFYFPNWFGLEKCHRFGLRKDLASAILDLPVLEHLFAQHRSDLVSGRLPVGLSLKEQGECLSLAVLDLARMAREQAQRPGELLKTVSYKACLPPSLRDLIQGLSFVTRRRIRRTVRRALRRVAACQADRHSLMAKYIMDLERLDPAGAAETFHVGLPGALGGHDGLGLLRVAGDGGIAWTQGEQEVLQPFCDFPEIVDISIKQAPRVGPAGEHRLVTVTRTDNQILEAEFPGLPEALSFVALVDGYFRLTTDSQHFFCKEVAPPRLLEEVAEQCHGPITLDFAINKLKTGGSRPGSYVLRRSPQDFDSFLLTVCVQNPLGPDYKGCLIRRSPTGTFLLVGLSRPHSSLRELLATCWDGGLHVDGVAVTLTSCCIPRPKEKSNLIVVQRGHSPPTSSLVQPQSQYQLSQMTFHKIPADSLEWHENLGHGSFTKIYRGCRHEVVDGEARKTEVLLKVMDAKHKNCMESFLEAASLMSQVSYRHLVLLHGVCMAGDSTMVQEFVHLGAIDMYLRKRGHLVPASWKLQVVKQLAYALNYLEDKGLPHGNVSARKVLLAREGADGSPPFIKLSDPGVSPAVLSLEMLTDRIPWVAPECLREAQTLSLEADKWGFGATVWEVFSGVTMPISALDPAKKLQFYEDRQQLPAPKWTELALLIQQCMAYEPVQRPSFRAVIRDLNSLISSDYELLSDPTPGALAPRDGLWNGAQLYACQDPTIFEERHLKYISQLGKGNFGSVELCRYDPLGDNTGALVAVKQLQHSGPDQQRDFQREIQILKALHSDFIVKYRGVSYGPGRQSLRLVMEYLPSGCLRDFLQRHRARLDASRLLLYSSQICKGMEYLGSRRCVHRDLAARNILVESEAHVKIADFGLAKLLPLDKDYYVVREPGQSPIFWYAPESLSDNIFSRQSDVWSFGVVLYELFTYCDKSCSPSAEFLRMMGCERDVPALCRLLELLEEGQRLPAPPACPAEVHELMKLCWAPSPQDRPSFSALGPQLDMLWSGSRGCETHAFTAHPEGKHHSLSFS
Chain of FKBP12 (P62942 whole entry, species assumed): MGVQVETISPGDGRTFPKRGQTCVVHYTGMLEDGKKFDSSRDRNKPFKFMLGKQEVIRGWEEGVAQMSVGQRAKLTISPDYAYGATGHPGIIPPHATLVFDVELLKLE
Chain of Hck (P08631 whole entry, species assumed): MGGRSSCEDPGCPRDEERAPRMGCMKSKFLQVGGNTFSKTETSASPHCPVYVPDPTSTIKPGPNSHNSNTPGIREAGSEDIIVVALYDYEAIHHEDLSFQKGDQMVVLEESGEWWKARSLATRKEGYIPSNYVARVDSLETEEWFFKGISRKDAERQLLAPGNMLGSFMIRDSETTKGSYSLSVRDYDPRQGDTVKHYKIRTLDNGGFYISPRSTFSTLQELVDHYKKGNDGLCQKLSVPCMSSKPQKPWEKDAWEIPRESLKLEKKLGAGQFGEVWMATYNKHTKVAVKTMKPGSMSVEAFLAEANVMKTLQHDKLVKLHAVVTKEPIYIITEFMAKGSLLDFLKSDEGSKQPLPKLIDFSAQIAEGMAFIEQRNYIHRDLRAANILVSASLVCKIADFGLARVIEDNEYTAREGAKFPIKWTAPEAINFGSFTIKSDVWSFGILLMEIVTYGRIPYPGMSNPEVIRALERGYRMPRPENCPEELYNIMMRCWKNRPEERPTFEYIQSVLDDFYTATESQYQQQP

C/C(O)=C(\C#N)C(=O)Nc1cc(Br)ccc1Br
IC50 (Hck): > 300000 nM
IC50 (JAK-1): > 300000 nM
IC50 (SYK): > 300000 nM
IC50 (JAK-3): > 300000 nM
IC50 (EGFR kinase): > 300000 nM
IC50 (IR kinase): > 300000 nM
IC50 (JAK-2): > 300000 nM

CC(C)[C@H](C(=O)Nc1ccc(C(=O)NO)cc1)c1ccccc1 [AR-42]
IC50 (HDAC): 30 nM

CN(C)c1ccc(C(=O)NCCCCCCC(=O)NO)cc1 [Compound M344]
IC50 (HDAC): 100 nM

CO[C@H]1C[C@@H]2CC[C@@H](C)[C@@](O)(O2)C(=O)C(=O)N2CCCC[C@H]2C(=O)O[C@H]([C@H](C)C[C@@H]2CC[C@@H](OCCO)[C@H](OC)C2)CC(=O)[C@H](C)/C=C(\C)[C@@H](O)[C@@H](OC)C(=O)[C@H](C)C[C@H](C)/C=C/C=C/C=C/1C [Everolimus]
IC50 (FKBP12): 1.6 to 2.4 nM
combination effect with compound (1-1) [1]: Synergy
Chou-Talalay combination index (CI), median [1]: 0.1
Chou-Talalay combination index (CI), range [1]: 0.1-0.2

CCN(CC)Cc1ccc2cc(COC(=O)Nc3ccc(C(=O)NO)cc3)ccc2c1 [ITF2357]
IC50 (HDAC): 7.5 to 16 nM

O=C(/C=C/c1ccc(CN(CCO)CCc2c[nH]c3ccccc23)cc1)NO [LAQ824]
IC50 (HDAC): 32 nM

Cn1c(/C=C/C(=O)NO)ccc1/C=C/C(=O)c1cccc(F)c1 [MC1568]
IC50 (HDAC): 200 nM

COc1ccc(-c2ccc3ncc4c(c3c2)n(-c2ccc(N3CCNCC3)c(C(F)(F)F)c2)c(=O)n4C)cn1 [NVP-BGT226]
IC50 (PI3K/mTOR): 1 nM

COc1ccc(-c2cc3c(C)nc(N)nc3n([C@H]3CC[C@H](OCCO)CC3)c2=O)cn1 [PF-04691502]
IC50 [2]: 3.8 nM
IC50 [3]: 7.5 nM

Nc1ncnc2c1c(-c1cnc3[nH]ccc3c1)nn2C1CCCC1 [PP-121, 1-Cyclopentyl-3-(1H-pyrrolo[2,3-b]p-yridin-5-yl)-1H-pyrazolo[3,4-d]pyrimidin-4-amine]
IC50 (PDGFR): 2 nM

COc1ccc(COc2cc3oc(=O)c4cc(C(C)O)ccc4c3cc2OC)cc1 (centres unmarked) [Palomid 529]
effect on phosphorylation of pAktS473, pGSK3βS9, pS6, pMAPK, pAktT308 [4]: both the mTORCl and mTORC2 complexes, reduces phosphorylation of pAktS473, pGSK3βS9, and pS6 but neither pMAPK nor pAktT308. Phase 1.

CCCCc1nc2cc(/C=C/C(=O)NO)ccc2n1CCN(CC)CC [SB939]
IC50 (HDAC): 40 to 140 nM

CCCC(CCC)C(=O)O [Valproic acid sodium salt]
IC50 (HDAC): 400000 nM

O=C(CCCCCCC(=O)Nc1ccccc1)NO [Vorinostat, suberoylanilide hydroxamic acid]
combination effect with compound (1-1) [1]: Synergy
Chou-Talalay combination index (CI), median [1]: 0.5
Chou-Talalay combination index (CI), range [1]: 0.3-0.6

CC1=C(/C=C/C(C)=C/C=C/C(C)=C/C(=O)O)C(C)(C)CCC1 [all-trans retinoic acid]
combination effect with compound (1-1) [1]: Synergy

Cn1c(CCCC(=O)O)nc2cc(N(CCCl)CCCl)ccc21 [bendamustine, 4-[5-[Bis(2-chloroethyl)amino]-1-methylbenzimidazol-2-yl]butanoic acid]
combination effect with compound (1-1) [1]: Additive effects

COc1cccc2c1C(=O)c1c(O)c3c(c(O)c1C2=O)C[C@@](O)(C(=O)CO)C[C@@H]3O[C@H]1C[C@H](N)[C@H](O)[C@H](C)O1 [doxorubicin, (7S,9S)-7-[(2R,4S,5S,6S)-4-amino-5-hydroxy-6-methyloxan-2-yl]oxy-6,9,11-trihydroxy-9-(2-hydroxyacetyl)-4-methoxy-8,10-dihydro-7H-tetracene-5,12-dione]
combination effect with compound (1-1) [1]: Additive effects
Chou-Talalay combination index (CI), median [1]: 0.83
Chou-Talalay combination index (CI), range [1]: 0.7-0.96

C=CC(=O)N1CCC[C@@H](n2nc(-c3ccc(Oc4ccccc4)cc3)c3c(N)ncnc32)C1 [ibrutinib]
combination effect with compound (1-1) [1]: Synergy
Chou-Talalay combination index (CI), median ([1]; in ABC-DLBCL): 0.04
Chou-Talalay combination index (CI), range ([1]; in ABC-DLBCL): 0.02-0.1

CC[C@H](Nc1ncnc2[nH]cnc12)c1nc2cccc(F)c2c(=O)n1-c1ccccc1 [idelalisib]
combination effect with compound (1-1) [1]: Synergy
Chou-Talalay combination index (CI), median [1]: 0.5
Chou-Talalay combination index (CI), range [1]: 0.04-2.4

Nc1cccc2c1CN(C1CCC(=O)NC1=O)C2=O (centres unmarked) [lenalidomide]
combination effect with compound (1-1) [1]: Synergy
Chou-Talalay combination index (CI), median [1]: 0.7

GSK2126458
Ki (PI3Kγ (p110γ)): 0.024 nM
Ki (PI3Kβ (p110β)): 0.13 nM

rituximab: agent combined with compound (1-1) in the synergy test
combination effect with compound (1-1) [1]: Synergy
Chou-Talalay combination index (CI), median [1]: 0.5
Chou-Talalay combination index (CI), range [1]: 0.4-0.5
